Data on 12 molecules can be found in PMC10709440, “High-throughput ligand profile characterization in novel cell lines expressing seven heterologous insect olfactory receptors for the detection of volatile plant biomarkers” (Scientific Reports, 2023).

Read-outs that look alike come from different tables or passages of the source.

The assay concerns the target T1, Drosophila OR85b (Drosophila melanogaster, UniProt Q9VHQ7).
T1 construct: expressed in transfected cells
T1 sequence (Q9VHQ7 1-390): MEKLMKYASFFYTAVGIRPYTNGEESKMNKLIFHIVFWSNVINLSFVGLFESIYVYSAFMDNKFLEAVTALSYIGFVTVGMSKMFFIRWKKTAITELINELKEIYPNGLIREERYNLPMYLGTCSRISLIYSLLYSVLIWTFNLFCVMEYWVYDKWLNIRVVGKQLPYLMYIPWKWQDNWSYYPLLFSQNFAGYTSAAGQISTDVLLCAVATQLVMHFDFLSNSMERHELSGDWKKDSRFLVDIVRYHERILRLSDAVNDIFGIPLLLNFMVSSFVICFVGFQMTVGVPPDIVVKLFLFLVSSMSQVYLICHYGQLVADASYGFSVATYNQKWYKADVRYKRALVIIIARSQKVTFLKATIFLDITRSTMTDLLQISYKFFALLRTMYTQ
T1 sequence (Q9VNB5 1-486 partner): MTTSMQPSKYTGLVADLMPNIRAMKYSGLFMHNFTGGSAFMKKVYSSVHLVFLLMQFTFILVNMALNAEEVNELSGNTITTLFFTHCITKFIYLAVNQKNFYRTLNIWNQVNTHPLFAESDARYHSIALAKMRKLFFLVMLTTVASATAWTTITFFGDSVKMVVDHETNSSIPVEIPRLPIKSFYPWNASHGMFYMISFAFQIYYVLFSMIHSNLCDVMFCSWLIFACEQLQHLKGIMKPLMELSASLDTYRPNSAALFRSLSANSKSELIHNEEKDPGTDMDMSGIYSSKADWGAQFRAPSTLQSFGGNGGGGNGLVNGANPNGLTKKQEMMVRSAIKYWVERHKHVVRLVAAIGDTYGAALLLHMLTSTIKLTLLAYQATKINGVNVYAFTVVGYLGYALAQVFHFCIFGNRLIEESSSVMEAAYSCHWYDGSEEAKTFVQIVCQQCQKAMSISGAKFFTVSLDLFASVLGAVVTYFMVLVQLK
Nature of the assay: Calcium ion fluorescence (GCaMP6) assay, OR85b stable HEK293 cell line. Set-up: key to DF norm AVERAGE OR85b: VOC ∆F divided by the plate's mean ∆F response to 50 µM VUAA1. The format is cell-based. The note with it: for OR85b response (VUAA1-normalized) at 1 μM / OR85b response (VUAA1-normalized) at 10 μM / OR85b response (VUAA1-normalized) at 100 μM / Average response: OR85b cell line; for OR85b response (VUAA1-normalized) at 1 μM: VOC concentration 1 μM; for OR85b response (VUAA1-normalized) at 10 μM: VOC concentration 10 μM; for OR85b response (VUAA1-normalized) at 100 μM: VOC concentration 100 μM; for Average response: VUAA1-normalized response, mean of biological replicates. The protocol: These VUAA1 normalized ∆F values were used to compare the different receptors and ligands.
The concentration-dependent effect of the reference ligands on their cognate cell lines was examined in more detail. Twelve different ligand concentrations were measured on each cell line in an overall 0.01 μM to 100 μM concentration range with 5 repetitions with three technical replicates each time.
Twelve thousand to 18,000 cells were plated into each well of a black wall, transparent bottom 384-well microplate (Greiner) 48 h or 72 h before the measurements and were simultaneously treated with 1 μg/mL doxycycline. […] The plate has 24 columns, thus we could record responses in up to eight different cell lines in each plate. On the day of the experiment, the growth medium was replaced with 20 µL assay buffer/well (140 mM NaCl, 5 mM KCl, 2 mM CaCl2, 1 mM MgCl2, 5 mM HEPES-Na, 20 mM glucose, pH 7.3, 340 mOsm). […] Baseline fluorescence (F0) was recorded for 5 s, after which 7 µL VOC buffer (140 mM NaCl, 5 mM KCl, 2 mM CaCl2, 1 mM MgCl2, 5 mM HEPES-Na, 31 mM glucose, 0.1% DMSO, pH 7.3, 340 mOsm) was injected into each well in one row and the fluorescence response was recorded for an additional 30 s, at a rate of one read/sec. VOC solutions (VOC buffer with 4× concentration of the final measured VOC concentration, 9 µL/well was injected) were measured on the same wells in a second round with the same protocol. Each individual concentration of a specific VOC sample was recorded in three wells for the same cell line on the same microplate. The raw data were exported in xls file format, F0 and FMAX values, and the fluorescence intensity changes (∆F) were calculated in Excel (Microsoft) (Supplementary file Data summary.xlsx) using the following equation: ΔF=FMAX-F0/F0 (see also Fig. 1C). On each plate, we recorded the response of each cell line to 50 µM VUAA1. The average of these ∆F values of each cell line were used to calculate the VUAA1-normalized values for the rest of the plate, by dividing VOC response ∆F values by the average VUAA1 response ∆F value of the corresponding OR cell line. Each VOC-OR combination was measured three times as technical replicates. […] The average of these replicates were used as one ∆F and VUAA1-normalized ∆F in the following analysis.
In the next rows we tested the reference VOCs (or other VOCs known to activate the corresponding cell lines), in order to test if all cell lines are responsive. The remaining rows were used to test VOCs with unknown effect.
The recorded FMAX, F0, ∆F, VUAA1-normalized ∆F values, as well as the OR name, the name of the tested sample, and the final concentration for each well were copied into supplementary file Data summary.xlsx, that was used to summarize all the plates recorded. Here, the averages of the measurements were calculated for each receptor-VOC-concentration combination.

The mark [1] stands for this setting: HEK293, read-out: OR85b Average response (VUAA1-normalized).
The mark [2] stands for this setting: ligand concentration 1 (unit not given), 0.05 threshold, values below shown as 0.
[3] abbreviates: ligand concentration 10 (unit not given), 0.05 threshold, values below shown as 0.
Setting [4] is: ligand concentration 100 (unit not given), 0.05 threshold, values below shown as 0.
Setting [5] is: HEK293, read-out: OR85b response (VUAA1-normalized response).
Where [6] appears, read: concentration 1, normalized fluorescence change, values below 0.05 threshold given as 0.
Setting [7] is: concentration 10, normalized fluorescence change, values below 0.05 threshold given as 0.
[8] abbreviates: concentration 100, normalized fluorescence change, values below 0.05 threshold given as 0.
[9] abbreviates: ligand concentration 1 (unit not given), threshold 0.05, below shown as 0.
[10] abbreviates: ligand concentration 10 (unit not given), threshold 0.05, below shown as 0.
[11] abbreviates: ligand concentration 100 (unit not given), threshold 0.05, below shown as 0.

For `Cc1ccccc1` [toluene], the “OR85b response (VUAA1-normalized) at 1 μM” value stood at 0.0843, the “OR85b response (VUAA1-normalized) at 10 μM” value is listed as 0.07 and the “OR85b response (VUAA1-normalized) at 100 μM” value was found to be 0.11. Under setting [1], the activation at 1 µM was determined as 8%, the activation at 10 µM was found to be 7% and the activation at 100 µM is 11%. The Average response (cc. 1 µM) was determined as 0.0843. For the same molecule, the Average response (cc. 10 µM) was found to be 0.07. Under “cc. 100 µM”, the Average response is reported as 0.11. Under setting [2], the “DF norm AVERAGE OR85b” value amounted to 0.08429. Also, under setting [3], the “DF norm AVERAGE OR85b” value is 0.067. Under setting [4], the “DF norm AVERAGE OR85b” value came to 0.1125.

Consider `C=C1CC[C@H]2O[C@]2(C)CC[C@@H]2[C@@H]1CC2(C)C` [(-)-caryophyllene oxide], for which the activation at 1 µM under setting [5] came to 0%. Further, the activation at 10 µM under setting [5] was determined as 0%. Besides, under setting [5], the activation at 100 µM worked out at 0%. For the same molecule, the Average response came to 0.00 (cc. 1 µM), 0.00 (cc. 10 µM) and 0.036 (cc. 100 µM). The “DF norm AVERAGE OR85b” value by setting is: under setting [6], 0; under setting [7], 0; under setting [8], 0.

Consider `CCc1ccccc1` [ethylbenzene], for which the activation at 1 µM under setting [5] turned out to be 0%. Under setting [5], the activation at 10 µM is 0%. Under setting [5], the activation at 100 µM amounted to 0%. The Average response runs as follows: (cc. 1 µM) 0.00719; (cc. 10 µM) 0.00; (cc. 100 µM) 0.00. Also, the “DF norm AVERAGE OR85b” value under setting [9] was 0, the “DF norm AVERAGE OR85b” value under setting [10] is given as 0 and the “DF norm AVERAGE OR85b” value under setting [11] worked out at 0.

As to `CC/C=C\CCOC(C)=O` [z3-hexenyl acetate], the Average response (cc. 1 µM) is reported as 0.15, the Average response (cc. 10 µM) amounted to 0.00 and the Average response (cc. 100 µM) was 0.00. For the same molecule, the “DF norm AVERAGE OR85b” value under setting [2] is listed as 0.1453, the “DF norm AVERAGE OR85b” value under setting [3] was 0 and the “DF norm AVERAGE OR85b” value under setting [4] was 0.

`Cc1cccc(C)c1` [m-xylene]: the “OR85b response (VUAA1-normalized) at 1 μM” value was 0.00, the “OR85b response (VUAA1-normalized) at 10 μM” value is 0.00 and the “OR85b response (VUAA1-normalized) at 100 μM” value was 0.09. Moreover, for the setting “cc. 1 µM”, the Average response was 0.023. The Average response (cc. 10 µM) was 0.00. In addition, the Average response (cc. 100 µM) is on record as 0.09. The “DF norm AVERAGE OR85b” value under setting [9] is on record as 0. The “DF norm AVERAGE OR85b” value under setting [10] is reported as 0. Further, the “DF norm AVERAGE OR85b” value under setting [11] was determined as 0.08801.

On to `CC1=CCC23CC1C(C)(C)C2CCC3C` (stereo not drawn) [α-funebrene], for which the “OR85b response (VUAA1-normalized) at 1 μM” value turned out to be 0.10, the “OR85b response (VUAA1-normalized) at 10 μM” value amounted to 0.00 and the “OR85b response (VUAA1-normalized) at 100 μM” value is 0.26. For the same molecule, under setting [1], the activation at 1 µM was 10%, the activation at 10 µM was found to be 0% and the activation at 100 µM came out at 26%. For the setting “cc. 1 µM”, the Average response was 0.10. The Average response (cc. 10 µM) worked out at 0.00. In addition, the Average response (cc. 100 µM) is 0.26. Also, the “DF norm AVERAGE OR85b” value under setting [2] worked out at 0.09747. Moreover, under setting [3], the “DF norm AVERAGE OR85b” value was 0. Moreover, the “DF norm AVERAGE OR85b” value under setting [4] is given as 0.2621.

Turning to `CCCCCCCCC(CO)CCCCCC` (stereo not drawn) [2-hexyl-1-decanol], the activation at 1 µM under setting [5] stood at 13%. In addition, under setting [5], the activation at 10 µM was 7%. Under setting [5], the activation at 100 µM stood at 8%. The Average response reads like this: (cc. 1 µM) 0.13; (cc. 10 µM) 0.07; (cc. 100 µM) 0.08. The “DF norm AVERAGE OR85b” value under setting [6] amounted to 0.1336, the “DF norm AVERAGE OR85b” value under setting [7] stood at 0.06997 and the “DF norm AVERAGE OR85b” value under setting [8] amounted to 0.07977.

As to `C=Cc1ccccc1` [styrene], the “OR85b response (VUAA1-normalized) at 1 μM” value stood at 0.00, the “OR85b response (VUAA1-normalized) at 10 μM” value is given as 0.00 and the “OR85b response (VUAA1-normalized) at 100 μM” value is 0.00. For the same molecule, the Average response (cc. 1 µM) is recorded as 0.00. In addition, the Average response (cc. 10 µM) worked out at 0.00. For the same molecule, the Average response (cc. 100 µM) was 0.0181. For the same molecule, the “DF norm AVERAGE OR85b” value under setting [2] turned out to be 0. For the same molecule, the “DF norm AVERAGE OR85b” value under setting [3] stood at 0. Under setting [4], the “DF norm AVERAGE OR85b” value was determined as 0.

For the molecule `CC/C=C/CCO` [e3-hexenol], the Average response (cc. 1 µM) worked out at 0.00, the Average response (cc. 10 µM) is recorded as 0.00 and the Average response (cc. 100 µM) is given as 0.0284. Moreover, the “DF norm AVERAGE OR85b” value runs as follows: under setting [9], 0; under setting [10], 0; under setting [11], 0.

For the molecule `Cc1ccc(C)c(C)c1` [1,2,4-trimethylbenzene], the activation at 1 µM is, setting by setting: under setting [1], 4%; under setting [5], 0%. For the same molecule, the activation at 10 µM reads like this: under setting [1], 7%; under setting [5], 7.41%. Further, the activation at 100 µM by setting is: under setting [1], 12%; under setting [5], 12%. For the same molecule, the Average response (cc. 1 µM) is on record as 0.0436, the Average response (cc. 10 µM) was 0.0741 and the Average response (cc. 100 µM) was 0.12. Moreover, the “DF norm AVERAGE OR85b” value reads like this: under setting [6], 0; under setting [7], 0.0741; under setting [8], 0.1212.

With `CC/C=C\CCO` [Z3-hexenol], the Average response runs as follows: (cc. 1 µM) 0.0533; (cc. 10 µM) 0.0426; (cc. 100 µM) 0.00. For the same molecule, the “DF norm AVERAGE OR85b” value is recorded as 0.05333 under setting [2], 0 under setting [3] and 0 under setting [4].

Regarding `C=CC(O)C/C=C\CC` (stereo not drawn) [(5Z)-octa-1,5-dien-3-ol], the activation at 1 µM under setting [5] worked out at 7%. Under setting [5], the activation at 10 µM worked out at 9%. The activation at 100 µM under setting [5] was 0%. The Average response runs as follows: (cc. 1 µM) 0.07; (cc. 10 µM) 0.09; (cc. 100 µM) 0.00. Further, the “DF norm AVERAGE OR85b” value reads like this: under setting [6], 0.07163; under setting [7], 0.08739; under setting [8], 0.
